pKd: −log10 of the molar value.
Key:
[1] = target: T1, human orexin 1 receptor (hOx1R) (Homo sapiens, UniProt O43613); experiment: Calcium accumulation in cells (FLIPR), antagonism of orexin A, hOx1R; assay type: cell-based; conditions: for pKd: cells expressing human orexin 1 receptor, IC50 vs orexin A converted by Cheng and Prusoff correction
T1 construct: expressed in transfected cells
T1 sequence (O43613 1-425): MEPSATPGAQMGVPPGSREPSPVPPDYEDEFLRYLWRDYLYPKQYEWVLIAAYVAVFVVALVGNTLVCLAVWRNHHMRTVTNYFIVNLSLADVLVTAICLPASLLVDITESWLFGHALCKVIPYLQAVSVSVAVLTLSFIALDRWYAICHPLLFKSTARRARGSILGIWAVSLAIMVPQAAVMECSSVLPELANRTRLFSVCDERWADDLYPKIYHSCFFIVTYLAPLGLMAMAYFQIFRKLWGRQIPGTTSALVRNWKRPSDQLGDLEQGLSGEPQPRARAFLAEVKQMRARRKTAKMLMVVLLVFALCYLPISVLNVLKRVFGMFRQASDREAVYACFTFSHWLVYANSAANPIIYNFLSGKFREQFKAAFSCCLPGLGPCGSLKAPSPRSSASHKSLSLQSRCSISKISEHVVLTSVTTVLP
Procedure: (§1) Cells expressing human orexin 1 or human orexin 2 receptors, were seeded at 8,000 cells/well in 384 well black-walled clear bottom, poly-D-lysine coated plates. After 24 h, the medium was removed and cells were washed once with phosphate buffered saline and serum-deprived overnight in assay buffer (130 mM NaCl, 5.4 mM KCl, 1.8 mM CaCl2, 0.8 mM MgSO4, 0.9 mM NaH2PO4, 25 mM glucose, 20 mM HEPES, pH 7.4) containing bovine serum albumin (1% w/v).
(§2) On the day of the experiment, the cells seeded in black plates were treated with assay buffer containing the Ca^2+ sensitive fluorescent dye Fluo-4-AM (2 μM), and probenecid (0.1 mM). After 1 h plates were washed twice with, and resuspended in, assay buffer containing probenecid (0.1 mM) using a multi plate washer. The plates were placed into a FLIPR II (Fluorometric Imaging Plate Reader, Molecular Devices, Sunnyvale, Calif., USA) and baseline fluorescence (fluorescence light units, FLU) was measured (5 measurements, 2 S each; laser excitation 488 nm at 0.6-1 W, CCD camera exposure 0.4 s) before addition of buffer alone (basal) or containing test compounds (either compound of formula I alone, agonist alone or agonist in the presence of various concentrations of compounds of formula I). Fluorescence measurements were then continued every 1 S for 120 S followed by every 4 S for 240 S.
(§3) The measurements were typically made in two sequences:
(§4) Compounds of formula I were tested usually in a concentration range from 10^−9 M to 10^−5 M.
(§5) In the second round, performed one hour later (to allow for equilibration), Orexin A was tested either in the absence (calibration curves, Orexin A agonist controls) or in the presence of compounds of formula I to determine antagonism.

[2] = target: T2, human orexin 2 receptor (hOx2R) (Homo sapiens, UniProt O43614); experiment: Calcium accumulation in cells (FLIPR), antagonism of orexin A, hOx2R; assay type: cell-based; conditions: for pKd: cells expressing human orexin 2 receptor, IC50 vs orexin A converted by Cheng and Prusoff correction
T2 construct: expressed in transfected cells
T2 sequence (O43614 1-444): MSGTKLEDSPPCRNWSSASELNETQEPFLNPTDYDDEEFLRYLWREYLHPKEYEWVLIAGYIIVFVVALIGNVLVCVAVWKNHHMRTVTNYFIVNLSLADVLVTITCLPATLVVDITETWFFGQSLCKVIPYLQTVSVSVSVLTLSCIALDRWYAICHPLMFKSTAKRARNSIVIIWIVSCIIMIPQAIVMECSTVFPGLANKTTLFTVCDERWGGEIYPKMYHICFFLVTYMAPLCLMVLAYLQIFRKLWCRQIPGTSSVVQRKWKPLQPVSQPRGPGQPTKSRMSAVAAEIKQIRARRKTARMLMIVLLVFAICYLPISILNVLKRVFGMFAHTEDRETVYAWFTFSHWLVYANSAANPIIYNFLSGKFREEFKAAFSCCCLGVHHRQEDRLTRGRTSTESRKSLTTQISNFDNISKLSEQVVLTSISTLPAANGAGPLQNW
Procedure: as §1, §2, §3, §4, §5

[3] = target: T1, human orexin 1 receptor (hOx1R); experiment: Radioligand binding assay ([125I]orexin A competition), hOx1R; conditions: CHO or HEK cell membranes, 1 h room temperature
Procedure: (§6) For crude cell membrane preparations, cells (CHO, Chinese hamster ovary or HEK, human embryonic kidney) expressing human orexin 1 or human orexin 2 receptors, were washed with HEPES (10 mM, pH 7.5), scraped off the culture plates with the same buffer, and centrifuged at 4° C. for 5 min at 2500×g. The cell pellet was either stored at −80° C. or used directly. Before the experiments, cell membranes were re-suspended in binding assay buffer (10 mM HEPES, 0.5% (w/v) bovine serum albumin, pH 7.5) by homogenisation with a Polytron homogeniser at 50 Hz for 20 s. Cell membranes were also used as made available by commercial providers.
(§7) In initial saturation experiments (to calculate Bmax), cell homogenates (150 μl) were incubated with 25-300 pM of the radioligand ([^125I]orexin A, 50 μl), 8 concentrations in triplicates in the presence or absence Orexin A (1 μM, 50 μl) to define non specific binding. Bound radioactivity was measured, and data were analysed with the program XLFIT or Graphpad Prism. Protein concentration was determined according to the Bradford/BioRad Protein Assay Kit.
(§8) In competition experiments, cell homogenates (150 μl) were incubated in assay buffer (10 mM HEPES, pH 7.5, 0.5% (w/v) bovine serum albumin, 5 mM MgCl2, […], and tween 0.05%) for 1 h at room temperature with about […] of the radioligand ([^125I]orexin A, 2100 Ci/mmole, 50 μl), and with various concentrations of compounds of the invention (50 μl) in triplicates; non-specific binding was determined in the presence of Orexin A (1 μM). Reactions were terminated by vacuum filtration, 3 washes of ice cold wash buffer (Tris-HCl pH 7.4/10 mM, with NaCl 154 mM). Competition data is expressed in Table 1 as Kd [μM].

[4] = target: T2, human orexin 2 receptor (hOx2R); experiment: Radioligand binding assay ([125I]orexin A competition), hOx2R; conditions: CHO or HEK cell membranes, 1 h room temperature
Procedure: as §6, §7, §8

[5] = measured at a concentration of 10 μM of compound (cells marked ^a)

SMILES | pKd [1] | pKd [2] | pKd [3] | pKd [4] | inhibition at 10 µM [2, 5] [%] | inhibition at 10 µM [1, 5] [%]
CCN(C(=O)c1cccc2c1OCO2)[C@H](CCNC(=O)c1ccccn1)Cc1ccccc1 [Example 45, Pyridine-2-carboxylic acid {(S)-3-[(benzo[1,3]dioxole-4-carbonyl)-ethyl-amino]-4-phenyl-butyl}-amide] | 5.57 | 6.37 | 5.27 | 6.13 | – | –
CN(C(=O)c1ccc2ccccc2c1)[C@H](CCNC(=O)c1nc2ccccc2n1C)Cc1ccc(Cl)cc1 [Example 50, 1-Methyl-1H-benzoimidazole-2-carboxylic acid {(S)-4-(4-chloro-phenyl)-3-[methyl-(naphthalene-2-carbonyl)-amino]-butyl}-amide] | 7.49 | 7.23 | 6.11 | 5.95 | – | –
CN(C(=O)c1ccc2c(c1)OCCO2)[C@H](CCNC(=O)c1ccccn1)Cc1ccccc1 [Example 71, Pyridine-2-carboxylic acid {(S)-3-[(2,3-dihydro-benzo[1,4]dioxine-6-carbonyl)-methyl-amino]-4-phenyl-butyl}-amide] | 5.71 | – | 5.79 | 5.02 | 28 | –
CN(C(=O)c1cccc2ccccc12)[C@H](CCNC(=O)c1nc2ccccc2n1C)Cc1ccccc1 [Example 18, 1-Methyl-1H-benzoimidazole-2-carboxylic acid {(S)-3-[methyl-(naphthalene-1-carbonyl)-amino]-4-phenyl-butyl}-amide] | 7.00 | 7.85 | 6.48 | 6.89 | – | –
COc1cccc(C(=O)N(C)[C@H](CCNC(=O)c2cccn2C)Cc2ccccc2)c1 [Example 103, 1-Methyl-1H-pyrrole-2-carboxylic acid {(S)-3-[(3-methoxy-benzoyl)-methyl-amino]-4-phenyl-butyl}-amide] | 5.85 | 8.10 | 6.20 | 7.72 | – | –
CN(C(=O)c1cccc2c1ccn2C)[C@H](CCNC(=O)c1ccccn1)Cc1ccccc1 [Example 40, 1-Methyl-1H-indole-4-carboxylic acid {(S)-1-benzyl-3-[(pyridine-2-carbonyl)-amino]-propyl}-methyl-amide] | 6.71 | 6.66 | 6.90 | 6.21 | – | –
CN(C(=O)c1ccc2c(c1)OCO2)[C@@H](CCNC(=O)c1ccccn1)Cc1ccccc1 [Example 47, Pyridine-2-carboxylic acid {(R)-3-[(benzo[1,3]dioxole-5-carbonyl)-methyl-amino]-4-phenyl-butyl}-amide] | 5.20 | – | 4.91 | – | – | –
Cc1nc(C(=O)NCC[C@H](Cc2ccccc2)N(C)C(=O)c2ccc3c(c2)OCO3)c(-c2ccccc2F)s1 [Example 83, 5-(2-Fluoro-phenyl)-2-methyl-thiazole-4-carboxylic acid {(S)-3-[(benzo[1,3]dioxole-5-carbonyl)-methyl-amino]-4-phenyl-butyl}-amide] | 7.38 | 8.52 | 7.27 | 7.68 | – | –
CCCN(C(=O)c1ccc2c(c1)OCO2)[C@H](CCNC(=O)c1ccccn1)Cc1ccccc1 [Example 13, Pyridine-2-carboxylic acid {(S)-3-[(benzo[1,3]dioxole-5-carbonyl)-propyl-amino]-4-phenyl-butyl}-amide] | 5.66 | 7.13 | 6.09 | 6.97 | – | –
CN(C(=O)c1ccccc1)[C@H](CCNC(=O)c1ccccn1)Cc1ccccc1 [Example 37, Pyridine-2-carboxylic acid [(S)-3-(benzoyl-methyl-amino)-4-phenyl-butyl]-amide] | 6.08 | 6.36 | 6.45 | 6.32 | – | –
CN(C(=O)c1cccc2ccccc12)[C@H](CCNC(=O)c1nc2ccccc2n1C)Cc1ccc(F)cc1 [Example 24, 1-Methyl-1H-benzoimidazole-2-carboxylic acid {(S)-4-(4-fluoro-phenyl)-3-[methyl-(naphthalene-1-carbonyl)-amino]-butyl}-amide] | 6.91 | 8.30 | 5.86 | 6.56 | – | –
[2H]C([2H])(c1ccccc1)C(CCNC(=O)c1ccccn1)N(C)C(=O)c1ccc2c(c1)OCO2 (centres unmarked) [Example 110, Pyridine-2-carboxylic acid {3-[(benzo[1,3]dioxole-5-carbonyl)-methyl-amino]-4,4-dideutero-4-phenyl-butyl}-amide] | 5.76 | – | 5.86 | – | – | –
CN(C(=O)c1cccc2c1OCO2)[C@@H](CCNC(=O)c1ccccn1)Cc1ccccc1 [Example 61, Pyridine-2-carboxylic acid {(R)-3-[(benzo[1,3]-dioxole-4-carbonyl)-methyl-amino]-4-phenyl-butyl}-amide] | 5.42 | – | 5.34 | – | – | –
CN(C(=O)c1cccc2c1OCO2)[C@H](CCNC(=O)c1ccccn1)Cc1ccccc1 [Example 30, Pyridine-2-carboxylic acid {(S)-3-[(benzo[1,3]dioxole-4-carbonyl)-methyl-amino]-4-phenyl-butyl}-amide] | 5.66 | – | 5.96 | – | – | –
CN(C(=O)c1ccc2c(c1)OCO2)[C@@H](Cc1ccccc1)C(C)(C)CNC(=O)c1ccccn1 [Example 113, Pyridine-2-carboxylic acid {(S)-3-[(benzo[1,3]dioxole-5-carbonyl)-methyl-amino]-2,2-dimethyl-4-phenyl-butyl}-amide] | – | 6.30 | – | 6.27 | – | 24
CN(C(=O)c1ccc2c(c1)OCO2)[C@H](CCNC(=O)c1ccccn1)Cc1ccccc1 [Example 1, Pyridine-2-carboxylic acid {(S)-3-[(benzo[1,3]dioxole-5-carbonyl)-methyl-amino]-4-phenyl-butyl}-amide] | 6.64 | – | 6.75 | – | – | –
COc1cc(Cl)cc(C(=O)N(C)[C@H](CCNC(=O)c2cccn2C)Cc2ccccc2)c1 [Example 106, 1-Methyl-1H-pyrrole-2-carboxylic acid {(S)-3-[(3-chloro-5-methoxy-benzoyl)-methyl-amino]-4-phenyl-butyl}-amide] | 7.08 | – | 7.30 | 8.52 | – | –
